Data on three compounds can be found in article PMC8285423, “In vitro efficacy of artemisinin-based treatments against SARS-CoV-2” (Scientific Reports, 2021).

Data set [1] relates to SARS-CoV-2/human/Denmark/DK-AHH1/2020. The experiment in a line: Concentration–response treatment antiviral assay in VeroE6 cells (spike immunostaining). The data set is classed as cell-based. Conditions: for EC50: Severe acute respiratory syndrome coronavirus 2, Vero C1008; for concentration at which almost / close to complete virus inhibition was achieved: treatment assay.

Data set [2] can be described thus: Cell viability assay (CellTiter 96 AQueous One) in VeroE6 cells. Conditions: African green monkey.
Procedure: (§1) To evaluate cytotoxic effects of the tested extracts, compounds, and diluents (DMSO), cell viability was monitored using the CellTiter 96 AQueous One Solution Cell Proliferation Assay (Promega, Madison, WI, USA). VeroE6 cells, Huh7.5 cells or A549-hACE2 cells were plated at 10,000, 8000 or 10,000 cells per well of flat bottom 96-well plates, respectively (Thermo Fisher Scientific, Roskilde, Denmark). The next day, medium was exchanged to contain specified concentrations of extracts or compounds or dilutions of DMSO adding 100 µL per well. Each concentration or dilution was tested in 3 replicates; at least 6 nontreated control wells were included in the assay. For VeroE6 cells and A549-hACE2 cells, after 48 ± 2 h, and for Huh7.5 cells, after 72 ± 2 h of incubation at 37 °C and 5% CO2, 20 µL CellTiter 96 AQueous One Solution Reagent was added per well and plates were incubated for 1.5 to 2 h at 37 °C and 5% CO2, prior to recording absorbance at 492 nm using a FLUOstar OPTIMA 96-well plate reader (BMG LABTECH, Offenburg, Germany). Absorbance recorded in each well was related to the average absorbance of nontreated control wells to calculate the percentage of cell viability. Datapoints included in figures are means of triplicates from one independent experiment with SEM. Sigmoidal dose response curves were fitted and median cytotoxic concentration (CC50) values were calculated with GraphPad Prism 8.0.0 using a bottom constraint of 0 and the formula Y = Top/(1 + 10^((LogCC50-X) * HillSlope)) as further specified in Figures S5, S7, and S9.
For data set [3], the system named is SARS-CoV-2/human/Denmark/DK-AHH1/2020. In words: Time-of-addition experiment with artesunate in A549-hACE2 cells. The data set is classed as cell-based. The note with it: for inhibition at 14 µg/mL: read-out: inhibition of viral infection.
The test system of data set [4] is SARS-CoV-2 isolate from Wuhan. Also on record: method as in earlier work. The note with it: VeroE6 cells, assay terminated 24 h post infection, ref 22 (Cao et al.); cited from earlier work.
For data set [5], the system named is SARS-CoV-2/human/Denmark/DK-AHH1/2020. In words: microbe, parasite or virus in culture. The data set is classed as cell-based. The note with it: for EC50: Severe acute respiratory syndrome coronavirus 2, 48 h.
For data set [6] the following is noted: animal studies; single dose; cited from earlier work.
Another data set deals with SARS-CoV-2. In words: Treatment assays summarised over different cell types (VeroE6, Huh7.5, A549-hACE2). The format is cell-based. The note with it: Severe acute respiratory syndrome coronavirus 2, VeroE6, Huh7.5, A549-hACE2 cells, read-out: range of 50% effective concentrations (EC50) in different cell types.
Data set [7] in a line: Cell viability assay (CellTiter 96 AQueous One) in A549-hACE2 cells. The data set is classed as cell-based. Conditions: human, no infection.
Data set [8] deals with SARS-CoV-2/human/Denmark/DK-AHH1/2020. The experiment in a line: microbe, parasite or virus in culture. The data set is classed as cell-based.
Data set [9] in a line: Cell viability assay (CellTiter 96 AQueous One) in Huh7.5 cells. Conditions: human.
Procedure: as §1
The test system of data set [10] is SARS-CoV-2/human/Denmark/DK-AHH1/2020. In words: Concentration–response pretreatment antiviral assay in VeroE6 cells (spike immunostaining). The format is cell-based. The note with it: for EC50: Severe acute respiratory syndrome coronavirus 2, Vero C1008, added 1.5 h prior to infection, 2-day incubation.
In data set [11] the test system is SARS-CoV-2/human/Germany/BavPat 1/2020. The experiment in a line: Plaque reduction antiviral assay (pretreatment) in VeroE6 cells. The format is cell-based. The note with it: addition prior to virus addition.
The nature of a further data set: in vitro. The note with it: African green monkey.
[12] abbreviates: VeroE6 cells, added 1 h post infection, 2-day incubation, read-out: EC50 Treatment assay.
[13] abbreviates: A549-hACE2 cells, treatment assay, added directly after inoculation, 2-day incubation, read-out: EC50.
[14] abbreviates: Severe acute respiratory syndrome coronavirus 2, 72 h, Huh7.5 cells, treatment assay, added directly after inoculation, 3-day incubation, read-out: EC50.

Molecules are shown by their SMILES. Converted amounts (≈) assume the structure as drawn.

Procedure for in vitro: as §1

One may read the inhibition as the percentage by which the read-out fell short of the control. Take `C[C@H]1[C@H](OC(=O)CCC(=O)O)O[C@@H]2O[C@@]3(C)CC[C@H]4[C@H](C)CC[C@@H]1[C@@]24OO3` [Artesunate]: the EC50 was 7 µg/mL in [1] (setting [12]); 18 µM in [1] (VeroE6 treatment assay, read-out: EC50); 13 µM in [4]; 12 µg/mL (≈ 31.2 µM) in data set [5] (setting [13]); 7 to 12 µg/mL (≈ 18.2 to 31.2 µM) in the data set on SARS-CoV-2; 11 µg/mL (≈ 28.6 µM) in data set [8] (setting [14]). In addition, in data set [1] (VeroE6 cells), the “concentration at which almost / close to complete virus inhibition was achieved” value came out at 15 µg/mL. In addition, the values for the CC50 at 48 h in data set [2] and in data set [7] were 41 µg/mL (≈ 107 µM) and 27 µg/mL (≈ 70.2 µM), respectively. Besides, the “inhibition of viral infection” value in [3] (14 µg/mL, added 0 h post inoculation, present during the 2 h viral infection phase) is reported as “did not result in inhibition”. In addition, the inhibition at 14 µg/mL in data set [3] (Severe acute respiratory syndrome coronavirus 2, added 2 h post inoculation) is not below 80%; in [3] (Severe acute respiratory syndrome coronavirus 2, added 4 h post inoculation), not below 80%; in data set [3] (Severe acute respiratory syndrome coronavirus 2, added 6 h post inoculation) it was not below 80%; in [5] (Severe acute respiratory syndrome coronavirus 2, A549-hACE2 cells, treatment assay, highest evaluated concentration 14 µg/mL), 63%. Besides, in data set [6], the “tissue concentrations (lung, kidney, intestine, spleen) versus plasma concentrations” value is reported as “several-fold higher”. Further, the “concentration with close to complete virus inhibition” value in data set [8] (Huh7.5 cells, treatment assay) was 22 µg/mL. The CC50 at 72 h in data set [9] amounted to 93 µg/mL (≈ 242 µM). The inhibition at 15 µg/mL in [10] (Severe acute respiratory syndrome coronavirus 2, Vero C1008, pretreatment assay, 15 µg/mL (highest evaluated concentration), read-out: virus inhibition) worked out at 69%.
Turning to `C[C@@H]1CC[C@H]2[C@@H](C)C(=O)O[C@@H]3O[C@@]4(C)CC[C@@H]1[C@]32OO4` [Artemisinin], the EC50 in data set [1] (setting [12]) is 151 µg/mL; in data set [5] (setting [13]), 168 µg/mL (≈ 595 µM); in data set [8] (setting [14]), more than 208 µg/mL; in data set [10], 238 µg/mL (≈ 843 µM). The “concentration at which almost / close to complete virus inhibition was achieved” value is 1208 µg/mL in data set [1] (VeroE6 cells) and 893 µg/mL in data set [10] (pretreatment assay). The CC50 at 48 h in data set [2] turned out to be 8220 µg/mL (≈ 29100 µM); in data set [7], 1530 µg/mL (≈ 5410 µM). In addition, the “effect on plaque formation (in words)” value in data set [11] is recorded as “little antiviral activity”. For the same compound, the virus inhibition entry in data set [8] (Huh7.5 cells, treatment assay, highest evaluated (non-cytotoxic) concentration 208 µg/mL) was “no significant virus inhibition”. The same compound yielded an inhibition at 208 µg/mL in data set [8] (Severe acute respiratory syndrome coronavirus 2, Huh7.5 cells, treatment assay, highest evaluated (non-cytotoxic) concentration 208 µg/mL) of less than 50%. This compound also showed a CC50 at 72 h in [9] of 5070 µg/mL (≈ 17900 µM).
On to `CO[C@H]1O[C@@H]2O[C@@]3(C)CC[C@H]4[C@H](C)CC[C@@H]([C@H]1C)[C@@]24OO3` [Artemether], for which the CC50 at 48 h in the data set “in vitro” amounted to 360 µg/mL (≈ 1210 µM); in [7] it was 380 µg/mL (≈ 1270 µM). Moreover, the EC50 in data set [1] (setting [12]) is 98 µg/mL; in data set [5], 53 µg/mL (≈ 178 µM); with SARS-CoV-2, 53 to 98 µg/mL (≈ 178 to 328 µM); in data set [8] (Severe acute respiratory syndrome coronavirus 2, Huh7.5, 72 h), 64 µg/mL (≈ 214 µM); in data set [10], 147 µg/mL (≈ 493 µM). Also, the “concentration at which almost / close to complete virus inhibition was achieved” value in [1] (VeroE6 cells) is not below 153 µg/mL. Moreover, in data set [5] (A549-hACE2 cells, treatment assay), the “concentration with close to complete virus inhibition” value was found to be 92 µg/mL. Also, the inhibition at 65 µg/mL in data set [8] (Severe acute respiratory syndrome coronavirus 2, Huh7.5, read-out: virus inhibition) amounted to 56%. This compound had a CC50 at 72 h in data set [9] of 127 µg/mL (≈ 426 µM). For the same compound, in data set [10] (Severe acute respiratory syndrome coronavirus 2, Vero C1008, pretreatment assay, 153 µg/mL, read-out: virus inhibition), the inhibition at 153 µg/mL turned out to be 52%.
